The results in this text go back to patent publication US7892581B2, “Compositions and methods for protection of harvested fruits from decay” (Gavish-Galilee Bio Applications Ltd., priority 2005, dated 2011).

This data set in a line: Release profile of marker components into vapor phase (headspace GC). The conditions noted are these: for Time to saturation of the vapor phase: release from essential oil on filter paper, sealed vial, 20° C.; for Concentration in the vapor phase: Thyme oil, within 3 hours. Format: physicochemical. Here is the method:
The profile of release of essential oils was determined by analyses using Gas Chromatograph HP6890 Series GC-System (FID) coupled with HP 7694 Headspace sampler, equipped with column HP-5 Trace Analysis (5% PH Me Siloxane) of volume 30 m×0.25 mm×0.25 μm, at ambient temperature. The following model system was developed and calibrated: filter paper (Whatman No. 1) strips absorbed with appropriate volume of essential oil to achieve desired concentrations, i.e., similar to those used for in-vivo experiments, were placed in 20 ml and 100 ml vials. The vials were hermetically sealed and marked to indicate the time course of vaporization (1, 3, 14 and 24 hours). These vials were kept in the dark at a temperature of 20° C. until their gas chromatography analyses.
GC FID analysis was applied to determine the release profile into the vapor phase of marker individual components during a 24 hour period. […] For all markers tested, saturation was achieved within 3 hours.

Consider `C=CCN=C=S` [allyl isothiocyanate], for which the “Time to saturation of the vapor phase” value was roughly 1.5 h.
On to `CC(C)=CCCC(C)CC=O` (stereo not shown) [citronellal], for which the “Time to saturation of the vapor phase” value was roughly 3.0 h.
Turning to `Cc1ccc(C(C)C)cc1` [p-cymene], the “Concentration in the vapor phase” value is given as roughly 56%.
Consider `Cc1ccc(C(C)C)c(O)c1` [thymol], for which the “Concentration in the vapor phase” value is roughly 1.2%.
